Source: patent publication US7169812B2, “Process for producing injectable gabapentin compositions” (Medtronic, Inc., priority 2003, dated 2007)
“Also recorded” adds a separate entry of the source.

Assays:
[1] = system: Crl:CD(SD)IGS BR rats; experiment: Intrathecal infusion toxicity study of heat-sterilized gabapentin solutions in rats (Day 1 to Day 29); format: in vivo; settings: rat
Experimental: Rats were infused intrathecally with solutions containing varying concentrations of gabapentin.
Injectable solutions containing 80 mg/ml gabapentin were prepared and sterilized by heating to F0=24 as described in Example 1. The heat-sterilized 80 mg/ml gabapentin solutions were diluted in sterile water for injection, USP (Abbott Laboratories; North Chicago, Ill.) to prepare solutions at gabapentin concentrations of 1.67, 4.17, and 37.5 mg/ml as shown in Table 2.
Osmotic minipumps(ALZET® Model 2ML4) were filled with approximately 2 ml of sterile water for Groups 1 and 6 or approximately 2 ml of the appropriate test article preparation for Groups 2 through 5. All dose preparations were filtered using a 0.22 μm filter prior to filling the osmotic minipumps.
The animals were obtained from Charles River Laboratories; Raleigh, N.C.. The animals were cannulated by the supplier in the intrathecal space overlying the lumbar vertebrae. The cannulae consisted of 1.3 cm PE-10 tubing attached to a 7 cm piece of polyurethane tubing (0.025 ID×0.040 OD) with a total dead volume of approximately 23.5 μl. On Day 1 (staggered based on sex), the animals were anesthetized and one prefilled osmotic pump/animal was aseptically inserted subcutaneously on the animal's dorsum. The cannula was filled with sterile water or test article preparation, as appropriate, and the pumps were connected to the intrathecal cannulae. Beginning on Day 1, animals were dosed 24 hours/day at a dose volume of approximately 60.96 μl/day via intrathecal infusion using the osmotic minipump through necropsy on Day 29. At initiation of dosing, the animals were 8 to 9 weeks old, and their body weights ranged from 264 g to 340 g for the males and 191 g to 264 g for the females.
Assessment of toxicity was based on mortality, clinical observations, ophthalmic examinations, body weights, food consumption, clinical pathology, and anatomic pathology. Ophthalmic examinations were performed prior to initiation of treatment and during week 4. An indirect ophthalmoscopy examination was done to include, but was not limited to, a cursory examination of the adnexa and anterior structures of the globe (e.g.,cornea, anterior chamber, lens) and a detailed examination of the ocular fundus. Body weights were taken prior to treatment, on Day 1, and weekly thereafter. Food consumption was measured weekly. At scheduled sacrifices, samples were taken for hematology, coagulation, and clinical chemistry. When possible, blood was collected from animals sacrificed at an unscheduled interval. Tissues were taken from each animal in groups 1 and 4 and each animal sacrificed at an unscheduled interval. Spinal cords were harvested from each animal in Groups 2, 3, and 5. The tissues and spinal cords were processed and examined microscopically. Macroscopic lesions were processed and examined microscopically from animals in Groups 2, 3, and 5. Sections of spinal cord from each animal in Groups 1 and 4 were embedded in paraffin, sectioned, and stained with luxol fast blue, and examined microscopically. Immunohistochemistry of spinal cord sections in paraffin from each animal in Groups 1 and 4 were sectioned, stained with anti-glial acidic fibrillary protein (Dako; Carpinteria, Calif.); rabbit IgG from Vector Laboratories; Burlingame, Calif. was used as a negative control), and examined. […]

[2] = Tonicity of gabapentin dissolved in water; format: physicochemical; settings: dissolved in water at 80 mg/ml
Description: In an embodiment, the invention provides an injectable composition comprising gabapentin, where the composition is substantially isotonic with a physiological fluid of a subject. For example, the injectable solution may be isotonic with a subject's blood or cerebrospinal fluid. Cerebrospinal fluid typically has a tonicity of about 305 mOsm. Accordingly, an embodiment of the invention provides an injectable gabapentin composition having a tonicity of about 290 mOsm to about 320 mOsm. If an injectable composition comprising gabapentin has a tonicity lower than about 290 mOsm to about 320 mOsm, the tonicity may be enhanced by adding a tonicity enhancing agent, such as sodium chloride. As used herein, “tonicity enhancing agent” means a compound or composition that increases tonicity of a composition. However, such tonicities of between about 290 mOsm to about 320 mOsm are not always achievable with gabapentin compositions. For example, gabapentin dissolved in water at a concentration of 80 mg/ml has a tonicity of about 500 mOsm. When the concentration of gabaentin in an injectable composition renders the composition hypertonic relative to a subject's physiological fluid, it is preferred that little or no amount of a tonicity enhancing agent be added to the composition. […]

[3] = system: mouse; settings: cited from earlier work
[4] = water; basic and acidic aqueous solutions; cited from earlier work

NCC1(CC(=O)O)CCCCC1 [gabapentin, 1-(aminomethyl)cyclohexane acetic acid]
Overall toxicity / tolerability ([1]; continuous intrathecal infusion, 0.10, 0.25, 2.25 and 4.8 mg/day, solutions heated to F0=24, acetic acid): no toxic effects attributable to the infused solutions were observed; also recorded: well tolerated and non-toxic | Glial fibrillary acidic protein immunostaining of spinal cord sections ([1]; control vs high-dose group (4.8 mg/day)): no significant variation | Organ weight differences, macroscopic observations, microscopic observations ([1]; intrathecal): no test article-related organ weight differences, macroscopic observations, or microscopic observations | Effects on clinical observations, body weights, body weight changes, food consumption, ophthalmic observations, clinical or anatomic pathology observations ([1]; intrathecal, 0.10-4.8 mg/day): No clear effects were observed | Effect on clinical pathology test results ([1]; intrathecal, terminally sterilized by heat): no obvious or adverse effect | Tonicity [2]: about 500 mOsm | toxicity (LD50, mouse) [3]: more than 8000 mg/kg | Solubility [4]: freely soluble
